Source: ChEMBL document CHEMBL4257223, “Histone demethylase inhibitors” (2016)

Experiments:
[1] = biological target: T1, Lysine-specific demethylase 4C (Homo sapiens, UniProt Q9H3R0); assay: Inhibition of recombinant human N-terminal GST-tagged JMJD2C (2 to 372 residues) expressed in baculovirus infected sf9 cells using H3K9me3-biotin peptide as substrate after 30 mins in presence of alpha-ketoglutaric acid by LANCE TR-FRET assay
T1 sequence (Q9H3R0 whole entry): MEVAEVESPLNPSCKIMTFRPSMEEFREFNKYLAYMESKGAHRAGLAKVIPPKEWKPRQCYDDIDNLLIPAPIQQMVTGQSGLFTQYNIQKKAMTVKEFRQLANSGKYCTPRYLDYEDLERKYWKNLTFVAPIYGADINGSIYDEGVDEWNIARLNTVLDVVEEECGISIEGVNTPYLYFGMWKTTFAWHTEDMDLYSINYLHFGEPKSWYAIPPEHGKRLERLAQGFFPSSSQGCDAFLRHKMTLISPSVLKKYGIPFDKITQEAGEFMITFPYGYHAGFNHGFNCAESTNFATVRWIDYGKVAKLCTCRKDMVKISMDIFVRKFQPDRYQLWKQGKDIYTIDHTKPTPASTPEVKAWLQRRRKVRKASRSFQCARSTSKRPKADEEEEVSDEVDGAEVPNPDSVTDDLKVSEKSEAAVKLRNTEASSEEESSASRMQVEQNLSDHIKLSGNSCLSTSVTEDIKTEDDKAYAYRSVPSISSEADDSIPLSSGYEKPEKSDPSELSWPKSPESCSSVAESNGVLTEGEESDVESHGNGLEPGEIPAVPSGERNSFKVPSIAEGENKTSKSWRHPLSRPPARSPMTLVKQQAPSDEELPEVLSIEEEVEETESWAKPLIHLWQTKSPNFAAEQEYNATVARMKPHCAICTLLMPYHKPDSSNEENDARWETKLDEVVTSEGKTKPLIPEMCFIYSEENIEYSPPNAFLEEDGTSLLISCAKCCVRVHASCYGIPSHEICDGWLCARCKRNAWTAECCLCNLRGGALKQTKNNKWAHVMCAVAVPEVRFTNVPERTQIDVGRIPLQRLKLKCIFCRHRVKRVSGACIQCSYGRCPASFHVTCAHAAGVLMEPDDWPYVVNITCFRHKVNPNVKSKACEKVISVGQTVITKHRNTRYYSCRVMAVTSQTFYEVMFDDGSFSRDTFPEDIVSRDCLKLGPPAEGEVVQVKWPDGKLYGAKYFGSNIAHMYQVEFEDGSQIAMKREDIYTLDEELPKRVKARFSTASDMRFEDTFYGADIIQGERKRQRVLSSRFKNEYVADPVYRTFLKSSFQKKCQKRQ

[2] = biological target: Lysine-specific demethylase 5A/5B (Homo sapiens, UniProt P29375+Q9UGL1); assay: Inhibition of KDM5A/KDM5B in human ZR-75-1 cells assessed as increase in H3K4me3 level after 72 hrs by fluorometric immunoblot analysis; type: cell-based
[3] = biological target: T2, Lysine-specific demethylase 2B (Homo sapiens, UniProt Q8NHM5); assay: Inhibition of recombinant human C-terminal FLAG-tagged FBXL10 (1 to 650 residues) expressed in baculovirus infected sf9 cells using H3K36me2-biotin peptide as substrate after 30 mins in presence of alpha-ketoglutaric acid by AlphaScreen assay
T2 sequence (Q8NHM5 whole entry): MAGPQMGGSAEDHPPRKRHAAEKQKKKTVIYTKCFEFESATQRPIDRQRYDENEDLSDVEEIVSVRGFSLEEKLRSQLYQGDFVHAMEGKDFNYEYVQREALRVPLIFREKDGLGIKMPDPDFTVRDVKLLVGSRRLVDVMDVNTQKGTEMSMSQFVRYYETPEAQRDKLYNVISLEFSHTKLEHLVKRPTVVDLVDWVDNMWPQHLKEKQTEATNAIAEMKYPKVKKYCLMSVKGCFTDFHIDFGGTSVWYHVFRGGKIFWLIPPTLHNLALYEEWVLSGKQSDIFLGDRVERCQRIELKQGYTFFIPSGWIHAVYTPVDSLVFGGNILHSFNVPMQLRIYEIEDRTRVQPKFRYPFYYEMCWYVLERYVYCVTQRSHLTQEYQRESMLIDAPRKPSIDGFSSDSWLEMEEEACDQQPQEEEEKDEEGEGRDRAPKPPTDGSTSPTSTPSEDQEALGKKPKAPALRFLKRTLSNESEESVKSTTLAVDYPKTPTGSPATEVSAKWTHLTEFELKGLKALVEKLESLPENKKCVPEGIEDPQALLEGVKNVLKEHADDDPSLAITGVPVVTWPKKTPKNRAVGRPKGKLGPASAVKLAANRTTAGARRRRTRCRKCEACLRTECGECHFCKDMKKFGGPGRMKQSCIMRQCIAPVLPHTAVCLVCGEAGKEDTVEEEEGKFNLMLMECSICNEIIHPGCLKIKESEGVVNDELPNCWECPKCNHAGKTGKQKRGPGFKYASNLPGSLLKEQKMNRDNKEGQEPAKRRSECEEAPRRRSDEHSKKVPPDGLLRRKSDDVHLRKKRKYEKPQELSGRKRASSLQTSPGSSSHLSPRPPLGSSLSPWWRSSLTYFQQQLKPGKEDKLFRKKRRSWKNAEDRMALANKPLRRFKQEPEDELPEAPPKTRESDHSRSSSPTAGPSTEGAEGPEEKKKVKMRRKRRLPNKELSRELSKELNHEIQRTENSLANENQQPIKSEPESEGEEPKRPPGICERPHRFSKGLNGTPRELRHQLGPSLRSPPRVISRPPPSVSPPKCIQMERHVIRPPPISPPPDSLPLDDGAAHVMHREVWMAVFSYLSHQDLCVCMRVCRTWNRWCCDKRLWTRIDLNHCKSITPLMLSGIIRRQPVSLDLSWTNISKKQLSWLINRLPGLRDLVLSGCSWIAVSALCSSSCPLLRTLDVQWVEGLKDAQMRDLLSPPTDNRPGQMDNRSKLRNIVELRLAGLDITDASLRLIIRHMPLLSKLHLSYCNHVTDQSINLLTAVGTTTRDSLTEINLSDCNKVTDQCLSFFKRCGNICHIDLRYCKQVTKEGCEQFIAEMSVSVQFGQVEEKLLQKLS

[4] = biological target: Lysine-specific demethylase 5B (Homo sapiens, UniProt Q9UGL1); assay: Inhibition of recombinant human N-terminal His-FLAG tagged JARID1B (2 to 751 residues) expressed in baculovirus infected sf9 cells using H3K4me3-biotin peptide as substrate after 30 mins in presence of alpha-ketoglutaric acid by LANCE TR-FRET assay
Chain of Lysine-specific demethylase 5B (Q9UGL1 whole entry, the tested form may be a part): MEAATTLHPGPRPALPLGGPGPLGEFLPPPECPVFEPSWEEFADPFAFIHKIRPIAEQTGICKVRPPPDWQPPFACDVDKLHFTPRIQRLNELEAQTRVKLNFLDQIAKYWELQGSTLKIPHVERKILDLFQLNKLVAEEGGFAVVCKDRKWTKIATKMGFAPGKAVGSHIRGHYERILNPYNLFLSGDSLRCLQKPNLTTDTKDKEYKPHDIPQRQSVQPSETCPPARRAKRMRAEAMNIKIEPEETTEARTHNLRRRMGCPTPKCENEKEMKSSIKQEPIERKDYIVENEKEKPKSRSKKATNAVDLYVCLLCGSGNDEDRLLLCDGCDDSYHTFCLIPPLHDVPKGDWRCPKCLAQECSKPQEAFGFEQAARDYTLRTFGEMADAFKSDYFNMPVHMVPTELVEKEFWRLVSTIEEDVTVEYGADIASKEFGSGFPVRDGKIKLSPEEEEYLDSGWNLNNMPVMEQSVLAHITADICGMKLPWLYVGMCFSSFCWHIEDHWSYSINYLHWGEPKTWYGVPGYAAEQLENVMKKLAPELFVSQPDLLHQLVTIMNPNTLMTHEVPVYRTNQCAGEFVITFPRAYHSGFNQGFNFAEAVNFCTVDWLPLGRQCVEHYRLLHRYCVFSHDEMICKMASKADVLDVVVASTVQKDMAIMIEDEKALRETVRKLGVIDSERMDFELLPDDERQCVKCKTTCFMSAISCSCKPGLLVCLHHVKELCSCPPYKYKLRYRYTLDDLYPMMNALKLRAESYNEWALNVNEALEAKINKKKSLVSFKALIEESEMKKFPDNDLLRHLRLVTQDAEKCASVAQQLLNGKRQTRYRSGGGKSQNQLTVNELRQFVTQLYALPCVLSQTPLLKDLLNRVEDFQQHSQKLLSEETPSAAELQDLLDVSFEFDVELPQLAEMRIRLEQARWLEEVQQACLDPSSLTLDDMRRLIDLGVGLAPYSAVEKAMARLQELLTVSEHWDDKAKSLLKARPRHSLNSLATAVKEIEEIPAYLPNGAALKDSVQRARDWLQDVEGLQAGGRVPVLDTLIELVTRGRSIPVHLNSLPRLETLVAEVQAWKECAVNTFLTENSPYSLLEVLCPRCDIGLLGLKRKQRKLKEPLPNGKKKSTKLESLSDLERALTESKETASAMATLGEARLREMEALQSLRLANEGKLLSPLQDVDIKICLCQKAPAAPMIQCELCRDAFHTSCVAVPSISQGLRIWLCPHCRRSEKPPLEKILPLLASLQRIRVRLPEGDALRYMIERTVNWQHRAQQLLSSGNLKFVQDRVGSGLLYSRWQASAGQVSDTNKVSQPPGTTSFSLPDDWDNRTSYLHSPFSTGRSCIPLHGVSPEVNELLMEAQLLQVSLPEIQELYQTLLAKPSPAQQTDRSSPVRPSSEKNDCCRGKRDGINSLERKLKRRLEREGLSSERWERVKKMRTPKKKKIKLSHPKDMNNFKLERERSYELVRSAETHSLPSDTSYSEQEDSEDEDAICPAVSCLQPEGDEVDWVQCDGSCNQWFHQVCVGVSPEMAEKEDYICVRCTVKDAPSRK

- IC50 [1]: 1 to 10 µM
- IC50 [2]: 1 to 10 µM
- IC50 [3]: 0.1 to 1 µM
- IC50 [4]: 0.1 to 1 µM
Structure (SMILES): COc1ccc(-c2c(-c3cc(C(=O)O)ccn3)ncn2C)cc1
